# Measurements reported in publication PMC11864979, “First-in-class ultralong-target-residence-time p38α inhibitors as a mitosis-targeted therapy for colorectal cancer” (Nature Cancer, 2025).
# “And” between values parts separate entries of the source, which are not always exact repeats. Identical values can stand only once.
# Experiments:
# [1] = tested on: SCC311 human colon organoids; test: cell viability in healthy human colon organoids SCC311; format: cell-based; details: for Cell viability (%): ED Fig. 10f, replicates
# Procedure: (§1) Primary tumor material was chopped, washed in ice-cold medium and transferred into basic medium (Supplementary Table 17), supplemented with 2.5 mg ml^−1 collagenase II (Thermo Fisher Scientific), 2.5 mg ml^−1 collagenase XI (Sigma-Aldrich), 1 mg ml^−1 Dispase II (Sigma-Aldrich), 100 µg ml^−1 DNase I and 10.5 µM Y-27632 dihydrochloride (Invitrogen). Tumor digestion was performed at 37 °C and stopped by adding medium containing 10% FBS. The mixture was centrifuged for 5 min at 300g. Red blood cells were removed with ACK lysing buffer (Thermo Fisher Scientific; 5 min at room temperature) and the pellet was resuspended in medium. Approximately 1,000 cells were resuspended and plated in 50 µl of Cultrex RGF BME, type 2 (R&D Systems). The ascites material was pelleted by centrifugation at 300g and washed three times with ice-cold PBS. Human CRC organoids were cultured in human CRC medium (Supplementary Table 17) at 37 °C and 7% CO2. Within the first week, the medium was supplemented with 10.5 µM Y-27632 dihydrochloride (Invitrogen). The human colon organoids (SCC311 and SCC321) were purchased from Sigma-Aldrich and cultured in human colon medium (Supplementary Table 17) at 37 °C and 7% CO2. They were derived from participants with the following sex and age: […].
# (§2) For in vitro treatment studies, organoids were mechanically dissociated and digested using TrypLE supplemented with 100 µg ml^−1 DNaseI and 10.5 µM Y-27632 dihydrochloride (Invitrogen) at 37 °C. A total of 1,000–2,000 single cells were plated per well in white 96-well plates (Greiner) in culture medium containing 10% GFR Matrigel or Cultrex BME. The treatment with doxycycline (5 µg ml^−1), pharmacological inhibitors or corresponding volumes of DMSO was started 24 h after plating. Doxycycline was obtained from Sigma-Aldrich. […] Cell viability was measured by means of CellTiter-Glo 3D or CellTiter-Glo 2.0 reagent (Promega) according to the manufacturers’ instructions and the Infinite M Plex reader (Tecan, i-control version 3.9.1 software). Results were normalized to vehicle (DMSO) or to shNC. For cell-doubling assays, the cell number was quantified at the corresponding time points using Guava EasyCyte flow cytometer (Luminex, CytoSoft v5.2 software).
# [2] = as above; format: cell-based; details: female, human, ED Fig. 10f, replicates
# Procedure: as §1, §2
# [3] = histological evaluation of small intestine, colon and liver of treated mice; format: in vivo, mouse
# Procedure: Histopathological evaluation of colorectal tumors and healthy tissues was performed by experienced pathologists (S.S. for murine or human tumors and tissues; G.O. for human tumors). Hematoxylin and eosin (H&E) staining was performed on paraffin-embedded sections using 0.5% eosin and 0.5% hematoxylin.
# [4] = weight development of treated mice; format: in vivo, mouse
# Procedure: No mice were excluded during treatment studies. […] GFP imaging of tumors was performed using a Hamamatsu imaging system. For quantification of compounds in the murine plasma, 20 μl of tail-vein blood was diluted with 80 μl of heparin solution, before 200 μl of ice-cold acetonitrile with a defined internal standard was added. The samples were sonicated and centrifuged and the supernatant was subjected to liquid chromatography-mass spectrometry quantification. Full blood analyses were performed with the Sysmex KX-21N hematology analyzer.
# [5] = tested on: KAP-shMapk14 and KAP-shNC organoids; test: cell viability in KAP-shMapk14 and KAP-shNC organoids treated with doxycycline and 2015; format: cell-based, mouse; set-up: Cell viability (%): concentration or dose not given beside the values; details: for Cell viability (%): individual replicates, relative to shNC + DMSO
# Procedure: To produce retroviral particles, Phoenix packaging cells were transfected with retroviral DNA (pRT3GEPIR and pR-BRAF^V600E-Puro) through calcium phosphate transfection. The viral supernatant, supplemented with polybrene (5 µg ml^−1) was applied on cells or dissociated organoids and the infected cultures were selected with puromycin (3 µg ml^−1). Expression of shRNAs and GFP was induced with 5 µg ml^−1 doxycycline (Sigma).
# as §2
# [6] = cell viability in healthy human colon organoids SCC321; format: cell-based; details: male, human, replicates
# Procedure: as §1, §2
# [7] = tested on: SCC321 human colon organoids; test: as above; format: cell-based; details: for Cell viability (%): ED Fig. 10g, replicates
# Procedure: as §1, §2
# KMP primary CRCs = test: survival of mice with KMP primary CRCs (cecum injection); format: in vivo, mouse
# Procedure: Subcutaneous injection, splenic seeding or cecum injection of organoids was performed in 8–10-week-old C57BL/6 N/Crl, Rag2^−/− (B6.Cg-Rag2^tm1.1Cgn/J), or CB17 Scid beige (CB17.Cg-Prkdc^scidLyst^bg-J/Crl) mice, obtained from Charles River. The organoids were dissociated into single cells, washed with PBS and injected in a 1:1 mixture of PBS and Matrigel. For murine organoids, 1 × 10^5 cells were injected into the left and right flanks or the spleen capsule and 2 × 10^6 cells were injected into the cecum wall. For human organoids, 4 × 10^5 cells were injected into the flanks of CB17 Scid beige mice. For splenic seeding and cecum injection, mice were anaesthetized using ketamine (100 mg kg^−1, intraperitoneally) and xylazin (10 mg/kg, intraperitoneally) in NaCl and a small laparotomy below the thorax was performed.
compound,measurement,setting,value
CNC(=O)c1ccc2c(c1)C(=O)c1ccc(Nc3ccc(F)c(NC(=O)C4CC4)c3)cc1CC2 [Compound 2015],Cell viability (%),"[1]; 2015 0,5 µM, 5 µM",94.54% and 77.32%
same,Cell viability (%),"[1]; 2015 0,25 µM, 25 µM",97.45% and 99.37%
same,Cell viability (%),[1]; 2015 1 µM,74.60% and 77.39% and 95.83%
same,response of healthy human colon culture (in words),"[1]; SCC311, 4 d",only a very weak response
same,viability at 5 µM,"[2]; healthy human colon organoids SCC311, 2015 0,5 µM",96%
same,viability at 25 µM,"[2]; healthy human colon organoids SCC311, 2015 0,25 µM",113%
same,intestinal epithelium (in words),[3]; 4 days or 10 weeks daily treatment,did not influence the regeneration of intestinal epithelium
same,liver damage (in words),[3]; short-term and long-term treatment,no signs for liver damage
same,Weight development (%),[4]; day 12,100.0% and 97.9% and 100.9% and 99.3% and 97.1%
same,Weight development (%),[4]; day 14,100.9% and 97.9% and 97.4% and 99.6% and 101.1% and 98.2% and 100.0%
same,Weight development (%),[4]; day 16,102.6% and 98.7% and 97.0% and 100.9% and 101.1% and 99.3%
same,Weight development (%),[4]; day 18,103.8% and 98.7% and 97.4% and 101.3% and 100.7% and 100.0% and 101.8%
same,Weight development (%),[4]; day 20,102.6% and 98.7% and 97.9% and 101.3% and 100.4% and 100.0%
same,Weight development (%),[4]; day 22,106.4% and 100.4% and 98.7% and 100.0% and 103.3% and 101.1% and 101.4%
same,Weight development (%),[4]; day 24,105.1% and 103.0% and 100.0% and 101.8% and 100.4% and 101.1%
same,Weight development (%),[4]; day 26,106.4% and 100.8% and 101.7% and 102.2% and 101.5% and 100.4% and 101.1%
same,Weight development (%),[4]; day 28,106.8% and 103.4% and 100.9% and 101.3% and 103.7% and 100.7% and 101.1%
same,Weight development (%),[4]; day 30,110.3% and 105.1% and 101.7% and 105.3% and 101.5% and 100.7% and 101.1%
same,Weight development (%),[4]; day 32,106.0% and 105.5% and 102.6% and 102.2% and 102.9% and 101.4%
same,Weight development (%),[4]; day 34,106.8% and 104.7% and 100.9% and 103.5% and 106.2% and 101.1% and 100.4%
same,Weight development (%),[4]; day 36,108.1% and 103.8% and 103.9% and 105.7% and 107.0% and 99.6% and 100.0%
same,Weight development (%),[4]; day 38,109.8% and 107.2% and 103.0% and 106.1% and 109.9% and 100.7% and 101.4%
same,Weight development (%),[4]; day 40,110.3% and 103.4% and 103.0% and 106.6% and 100.7% and 99.3%
same,Weight development (%),[4]; day 42,109.4% and 106.4%
same,body weight over time (in words),"[4]; mouse, in vivo",did not lose body weight
same,response of KAP-shMapk14.2605 organoids (in words),[5]; doxycycline-induced Mapk14-shRNA expression,did not respond
same,Cell viability (%),[5]; shMapk14.2605 + 2015,22.20% and 48.13% and 45.94%
same,Cell viability (%),[5]; shNC + 2015,31.98% and 25.43% and 20.36%
same,viability at 25 µM,"[6]; healthy human colon organoids SCC321, 2015 0,25 µM, ED Fig. 10g",105%
same,viability at 5 µM,"[6]; healthy human colon organoids SCC321, 2015 0, ED Fig. 10g",109%
same,viability at 1 µM,"[6]; healthy human colon organoids SCC321, 2015 1 µM, ED Fig. 10g",86.9%
same,Cell viability (%),"[7]; 2015 0,5 µM, 5 µM",115.51% and 112.50%
same,Cell viability (%),"[7]; 2015 0,25 µM, 25 µM",100.29% and 98.19%
same,Cell viability (%),[7]; 2015 1 µM,83.04% and 75.31%
same,response of healthy human colon culture (in words),"[7]; SCC321, 4 d",only a very weak response
same,Survival (d of treatment),"KMP primary CRCs; individual mice, KMP primary CRC, treatment started 9 days after transplantation",24 days and 15 days and 11 days and 25 days and 21 days and 13 days and 18 days
same,Kaplan–Meier event entry in 2015 (1 or 0),"KMP primary CRCs; individual mice, KMP primary CRC, meaning of 1/0 not given",1 and 0
same,survival of mice with KMP primary CRC (in words),KMP primary CRCs; start 9 days after organoid injection,significantly prolonged survival
